From patent US6455518B2 (Novartis AG, priority 1996, dated 2002)

Tests used:
[1] = test system: Spleen cells of BALB/c and CBA mice; test: two-way mouse mixed lymphocyte reaction (3H-thymidine incorporation); format: cell-based; conditions: single compound; 3H-thymidine incorporation after four days culture
Experimental: After four days, ^3H-thymidine is added. Sixteen hours later, the cells are harvested and ^3H-thymidine incorporation is measured by liquid scintillation counting. Cell proliferation is assessed in the absence of compounds (100% value) or in the presence of serially diluted compounds or combinations of compounds. The maximum ^3H thymidine incorporation (100% value) is around 240×10^3 cpm, and the background ^3H-thymidine incorporation in unstimulated cells is around 5×10^3 cpm. […] These IC70 values are converted into relative units with regard to the IC70 value of the respective single drug treatment.

kidney allograft = test: orthotopic kidney allotransplantation model (DA donor, Lewis recipient); format: in vivo, rat; conditions: for Histology of rejection: kidney
Source text: Kidney transplantation is followed by contralateral nephrectomy 7 days later: at nephrectomy, the graft is macroscopically inspected, and if rejection is macroscopically evident, the experiment is terminated. Surviving animals are monitored daily for clinical signs of renal dysfunction.
(§1) In both the kidney and heart allograft experiments, the termination point in long term survivors is 100 days. In all cases, the graft is removed at autopsy, fixed in buffered formalin, and embedded in paraffin. Four micron thick sections stained with hematoxylin and eosin are read for signs of rejection and scored as “no rejection”, or “marginal”, “slight”, “moderate”, or “severe” cellular rejection based on the extent of mononuclear cell infiltration and damage to the parenchyma (tubules in the kidney, myocytes in the heart).

heart allograft = test: heterotopic heart allotransplantation model (DA donor, Lewis recipient); format: in vivo, rat
Source text: The abdomen is then palpated daily to determine if the graft is still beating; in case of cessation of heartbeat, the experiment is terminated.
as §1

[2] = rat, in vivo, iv
Experimental: Whole blood concentrations of both compounds are determined by liquid chromatography-reversed isotope dilution (LC-RID).

[3] = heart, 40-O-(2-hydroxyethyl)-rapamycin 5.0 mg/kg daily oral

CO[C@H]1C[C@@H]2CC[C@@H](C)[C@@](O)(O2)C(=O)C(=O)N2CCCC[C@H]2C(=O)O[C@H]([C@H](C)C[C@@H]2CC[C@@H](OCCO)[C@H](OC)C2)CC(=O)[C@H](C)/C=C(\C)[C@@H](O)[C@@H](OC)C(=O)[C@H](C)C[C@H](C)/C=C/C=C/C=C/1C [40-O-(2-hydroxyethyl)-rapamycin]
IC70 (concentration at which the maximum proliferative response is inhibited by 70%) [1]: 300 pM | minimum effective dose giving long term allograft survival (kidney allograft; kidney allograft, single compound treatment, daily oral): 5.0 mg/kg | Histology of rejection (kidney allograft; 40-O-(2-hydroxyethyl)-rapamycin 1.0 mg/kg daily oral): moderate-severe | Histology of rejection (kidney allograft; 40-O-(2-hydroxyethyl)-rapamycin 2.5 mg/kg daily oral): slight-moderate | Histology of rejection (kidney allograft; 40-O-(2-hydroxyethyl)-rapamycin 5.0 mg/kg daily oral): moderate; ≧100 marginal | minimum effective dose giving long term allograft survival (heart allograft; heart allograft, single compound treatment, daily oral): > 5.0 mg/kg | Histology of rejection (heart allograft; heart, 40-O-(2-hydroxyethyl)-rapamycin 1.0 mg/kg daily oral): severe | Histology of rejection (heart allograft; heart, 40-O-(2-hydroxyethyl)-rapamycin 2.5 mg/kg daily oral): moderate | Histology of rejection (heart allograft; [3]): moderate | Survival (days) (heart allograft; [3]): 22,23 days | CL [2]: 3.2 ± 0.3 mL/min | t1/2 [2]: 56 ± 7 h | V ([2]; 1 mg/kg): 52 ± 3 L/kg
